How the values were obtained:
Type in all cases: cell-based, NOD mice
[1] = system: INSβ-specific T cell line; test: Presentation to INSβ-specific T cell line ([3H]thymidine proliferation); settings: irradiated NOD splenic APCs; peptides 10 μM, Ig-chimeras 1 μM; 3-day incubation
Experimental: T cell lines: A T cell line specific for INSβ peptide was generated by immunizing NOD mice with 100 μg of INSβ peptide in 200 μl PBS/CFA (vol/vol) subcutaneously (“s.c.”) in the footpads and at the base of each limb. After 10 days, the draining lymph nodes were removed, and T cells were stimulated in vitro for 2 rounds in the presence of irradiated (3000 rads), syngenic splenocytes, 5% T-Stim supplement (Collaborative Biomedical Products, Bedford, Mass.), and INSβ peptide (25 μg/ml). […]
(§1) Presentation of Ig-INSβ chimera to specific T cells was then determined. […] For presentation of INSβ peptide and Ig-INSβ (FIGS. 2(a) and 2(b) respectively), the activation was assessed by [^3H] thymidine incorporation since the T cells were from a line. Accordingly, 1 μCi [^3H]thymidine per well was added during the last 14 hours of a 3-day incubation period and the cells were harvested, and the radioactivity counted. For presentation of HEL peptide (FIG. 2(c)) and Ig-HEL (FIG. 2(d)), T cell activation was assessed by measuring IL-2 production as the HEL-specific cells were from a hybridoma. Accordingly, after 24 hours incubation IL-2 was measured in 100 μl supernatant by ELISA. […]

HEL-specific hybridoma = test: Presentation to HEL-specific T cell hybridoma (IL-2 production); settings: irradiated NOD splenocytes; peptides 10 μM, Ig-chimeras 1 μM; 24 hours
Experimental: T cell hybridomas: A HEL-specific T cell line was fused with the αβ TCR negative thymoma BW1100 (ATCC) using polyethylene glycol 4000 (Sigma, St. Louis, Mo.). Hybrids were then selected by supplementing the culture media with hypoxanthine-azaserine (Sigma). Resulting hybridomas were then screened for reactivity to HEL peptide by testing for production of IL-2 in the supernatant following stimulation with irradiated (3000 rads) splenocytes in the presence of 15 μg/ml HEL peptide. Positive hybridomas were then cloned by limiting dilution and used to assess presentation of HEL peptide and Ig-HEL chimera.
as §1

Splenic cells = test: IFNγ response of splenic cells from 14 week old mice; settings: INSβ peptide 18 μM, Ig-INSβ chimeras 1 μM; 24 hours; no rIL-10
Experimental: (§2) Detection of IL-10 and IFNγ was performed according to BD Pharmingen's standard protocol. The capture Abs were as follows: rat anti-mouse IL-10, JES5-2A5 and rat anti-mouse IFNγ, R4-6A2. The biotinylated anti-cytokine Abs were as follows: rat anti-mouse IL-10, JES5-16E3 and rat anti-mouse IFNγ, XMG1.2. Both antibodies were purchased from BD Pharmingen (San Diego, Calif.). ELISA for the detection of active TGFβ was preformed using the human TGFβ1 DuoSet kit (R&D systems, Minneapolis, Minn.) according to the manufacturer's instructions. […] All assays were read on a SpectraMAX 190 counter. Graded amounts of recombinant mouse IFNγ, IL-10, and TGFβ were included in all experiments for construction of standard curves. The cytokine concentration in culture supernatants was interpolated from the linear portion of the standard curve.
To test this premise, splenic and islet cells from 14 week old mice were stimulated with agg Ig-INSβ, which induces IL-10 production by the presenting APCs and secretion of IFNγ was measured. Splenic (a) and islet (b) cells (5×10^5 cells/well) from 14 week old female NOD mice were stimulated with the indicated antigen in the presence or absence of 1 ng of rIL-10 for 24 hours. The supernatant (100 μl/well) was used to measure IFNγ by ELISA as indicated in “Materials and Methods”. […]

islet cells = test: IFNγ response of islet cells from 14 week old mice; settings: INSβ peptide 18 μM, Ig-INSβ chimeras 1 μM; 24 hours; no rIL-10
Experimental: as §2
Islet-infiltrating cells were derived from 14 week old female NOD mice by collagenase digestion as previously described (36). […] Viability of the cells was determined by trypan blue exclusion.
To test this premise, splenic and islet cells from 14 week old mice were stimulated with agg Ig-INSβ, which induces IL-10 production by the presenting APCs and secretion of IFNγ was measured. […]

Sequence | proliferation of the INSβ-specific T cell line [1] | stimulation of HEL-specific hybridoma (IL-2 production) (HEL-specific hybridoma) | IFNγ response of splenic T cells (Splenic cells) | IFNγ response of islet T cells (islet cells)
AMKRHGLDNYRGYSL [HEL peptide] | unable to induce proliferation | able to stimulate the HEL-specific hybridoma | – | –
SHLVEALYLVCGERG [INSβ peptide] | proliferated significantly | – | developed IFNγ responses | developed IFNγ responses

Source: US8609091B2, “Method for endocytic presentation of an immunosuppressive for the treatment of type 1 diabetes” (The Curators of the University of Missouri, priority 2002, dated 2013)
